Measurements reported in US9795597B2, “Cyclopropylamines as LSD1 inhibitors” (GlaxoSmithKline Intellectual Property (No.2) Limited, priority 2011, dated 2017).

Assays:
LSD1 = target: T1, LSD1 (Homo sapiens, UniProt O60341); assay: Biochemical assay for LSD-1 activity (luminescence, H3K4 dimethylated peptide substrate); conditions: average of two or more tests; 30 min preincubation of enzyme and compound; read-out: LSD1 PIC50 MEAN (converted)
T1 construct: made in house
Procedure: Biochemical Assay for LSD-1 Activity
The LSD-1 luminescence assay is performed in a buffer containing 25 mM Tris, pH 7.5, 50 mM potassium chloride, 0.02% heat-denatured BSA, 2 mM CHAPS and milliQ ultrapure water. […] The enzyme and test compound are allowed to incubate together for 30 minutes at room temperature. Two microliters of the substrate mix are then added to each well of the plate to initiate the reaction. The plates are covered, protected from light and allowed to incubate for two hours at room temperature. Then, 4 uL of HyPerBlu peroxide detection luminescence reagent (Lumigen/Beckman Coulter, cat# HPB-00005) is added to each well to quench the demethylase reaction and generate the peroxide-dependent luminescence signal. The plates are then incubated for 15-30 minutes in the dark at room temperature prior to being read for Luminescence using a Perkin Elmer Viewlux plate reader. Percent inhibition is calculated based on no compound and no enzyme controls, and inhibition curves are then plotted to determine PIC50 values.

MAO-B = target: T2, MAO-B (Homo sapiens, UniProt P27338); assay: Biochemical assay for MAO-B activity (FLINT, benzylamine/amplex red); conditions: average of two or more tests; 30 min preincubation of enzyme and compound; read-out: MAOB PIC50 MEAN (converted)
T2 construct: purchased Gentest-BD Biosciences 456284
T2 sequence (P27338 1-520): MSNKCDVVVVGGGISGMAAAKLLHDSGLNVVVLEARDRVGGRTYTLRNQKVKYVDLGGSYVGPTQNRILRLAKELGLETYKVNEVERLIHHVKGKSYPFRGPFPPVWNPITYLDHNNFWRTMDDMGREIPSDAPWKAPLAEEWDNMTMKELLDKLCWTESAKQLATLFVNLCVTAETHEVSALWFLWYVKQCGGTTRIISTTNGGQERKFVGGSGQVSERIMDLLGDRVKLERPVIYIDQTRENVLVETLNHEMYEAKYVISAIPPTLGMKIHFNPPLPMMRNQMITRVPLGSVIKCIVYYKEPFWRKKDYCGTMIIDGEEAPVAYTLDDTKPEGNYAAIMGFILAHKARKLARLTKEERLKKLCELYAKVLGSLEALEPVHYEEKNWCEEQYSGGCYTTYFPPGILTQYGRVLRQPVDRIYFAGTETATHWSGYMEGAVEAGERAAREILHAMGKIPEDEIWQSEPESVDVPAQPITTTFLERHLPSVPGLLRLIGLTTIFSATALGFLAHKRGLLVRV
Procedure: Biochemical Assay for MAO-B Activity
The MAO-B FLINT assay is performed in a buffer containing 50 mM potassium phospate, pH 7.4, in milliQ ultrapure water. […] The enzyme and test compound are allowed to incubate together for 30 minutes at room temperature. Five microliters of the substrate mix are then added to each well of the plate to initiate the reaction. The plates are covered, protected from light and allowed to incubate for one hour at room temperature. […] Percent inhibition is calculated based on no compound and no enzyme controls, and inhibition curves are then plotted to determine PIC50 values.

IC50 (LSD1) [nM] | IC50 (MAO-B) [nM] | Compound
200 | 31600 | CN(CCC1CCNCC1)[C@@H]1C[C@H]1c1ccccc1 (relative stereo) [Example 77, trans-N-Methyl-2-phenyl-N-(2-(piperidin-4-yl)ethyl)cyclopropanamine]
31.6 | 20000 | O=C(O)c1ccc(CCN2CCC(CN[C@@H]3C[C@H]3c3ccccc3)CC2)cc1 [Example 123, 4-(2-(4-((((1R,2S)-2-phenylcyclopropyl)amino)methyl)piperidin-1-yl)ethyl)benzoic acid]
25.1 | 7940 | OB1OCc2c(CN3CCC(CN[C@@H]4C[C@H]4c4ccccc4)CC3)cccc21 (relative stereo) [Example 55, 4-((4-(((trans-2-Phenylcyclopropyl)amino)methyl)piperidin-1-yl)methyl)benzo[c][1,2]oxaborol-1(3H)-ol]
79.4 | 25100 | O=C(O)c1ccc(CN2CC[C@@H](CN[C@@H]3C[C@H]3c3ccccc3)C2)cc1 [Example 28b, 4-{[(3S)-3-({[(1R,2S)-2-Phenylcyclopropyl]amino}methyl)-1-pyrrolidinyl]methyl}benzoic acid]

The remaining lines, values behind:

Compound | IC50 (LSD1) [nM] | IC50 (MAO-B) [nM]
CN1CCC(CN[C@@H]2C[C@H]2c2ccccc2)CC1 (relative stereo) [Example 20, [(1-Methyl-4-piperidinyl)methyl][trans-2-phenylcyclopropyl]amine] | 6.31 | 25100
O=C(Nc1ccccc1)N1CCC(CN[C@@H]2C[C@H]2c2ccccc2)CC1 (relative stereo) [Example 12, N-Phenyl-4-(((trans-2-phenylcyclopropyl)amino)methyl)piperidine-1-carboxamide] | 79.4 | 2000
CC(C)(C)OC(=O)N1CCC(CN[C@@H]2C[C@H]2c2ccccc2)CC1 [Example 2, 1,1-Dimethylethyl 4-({[(1R,2S)-2-phenylcyclopropyl]amino}methyl)-1-piperidinecarboxylate] | 39.8 | 631
O=S(=O)(c1ccccc1)N1CCC(CN[C@@H]2C[C@H]2c2ccccc2)CC1 (relative stereo) [Example 13, trans-2-Phenyl-N-((1-(phenylsulfonyl)piperidin-4-yl)methyl)cyclopropanamine] | 50.1 | 5010
O=C(O)c1ccc(CN2CC[C@H](CN[C@@H]3C[C@H]3c3ccccc3)C2)cc1 [Example 28a, 4-{[(3R)-3-({[(1R,2S)-2-Phenylcyclopropyl]amino}methyl)-1-pyrrolidinyl]methyl}benzoic acid] | 158 | 31600
O=C(O)c1ccc(CN2CCC(CN[C@@H]3C[C@H]3c3ccccc3)CC2)cc1 [Example 29, 4-((4-((((1R,2S)-2-phenylcyclopropyl)amino)methyl)piperidin-1-yl)methyl)benzoic acid] | 158 | 25100
O=C(OCc1ccccc1)N1CCC(CN[C@@H]2C[C@H]2c2ccccc2)CC1 (relative stereo) [Example 18, Benzyl 4-(((trans-2-phenylcyclopropyl)amino)methyl)piperidine-1-carboxylate] | 31.6 | 631
